The molecules below were run against Nanoluciferase-BRD9 fusion protein (3×FLAG-NLuc-BRD9) in SYO-1 cells (Homo sapiens (Human), UniProt Q9H8M2) (assay: SYO1 BRD9 NanoLuc degradation assay). Settings: SYO-1 cells expressing 3×FLAG-NLuc-BRD9, 6 hours incubation, top dose 1 μM.
Nanoluciferase-BRD9 fusion protein (3×FLAG-NLuc-BRD9) in SYO-1 cells, sequence (Q9H8M2 whole entry, the tested form may be a part): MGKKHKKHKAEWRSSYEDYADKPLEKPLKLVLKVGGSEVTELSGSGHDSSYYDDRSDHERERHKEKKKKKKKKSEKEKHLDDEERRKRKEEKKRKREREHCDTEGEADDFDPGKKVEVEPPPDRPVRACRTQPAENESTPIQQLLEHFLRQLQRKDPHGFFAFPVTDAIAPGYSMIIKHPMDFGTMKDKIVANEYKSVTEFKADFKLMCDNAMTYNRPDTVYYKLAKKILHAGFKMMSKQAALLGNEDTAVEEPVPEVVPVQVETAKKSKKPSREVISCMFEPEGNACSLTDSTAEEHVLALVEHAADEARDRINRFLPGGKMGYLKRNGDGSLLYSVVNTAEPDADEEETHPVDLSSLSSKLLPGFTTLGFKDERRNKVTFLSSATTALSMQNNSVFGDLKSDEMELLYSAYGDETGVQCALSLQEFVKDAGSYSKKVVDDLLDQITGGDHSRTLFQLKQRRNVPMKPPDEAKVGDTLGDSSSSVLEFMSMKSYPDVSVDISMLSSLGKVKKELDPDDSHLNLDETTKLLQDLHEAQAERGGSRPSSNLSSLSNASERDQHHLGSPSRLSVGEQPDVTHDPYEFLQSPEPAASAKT
Assay type: cell-based
Method: Procedure: A stable SYO-1 cell line expressing 3×FLAG-NLuc-BRD9 was generated. On day 0 cells were seeded in 30 μL media into each well of 384-well cell culture plates. The seeding density was 8000 cells/well. On day 1, cells were treated with 30 nL DMSO or 30 nL of 3-fold serially DMSO-diluted compounds (10 points in duplicates with 1 μM as final top dose). Subsequently plates were incubated for 6 hours in a standard tissue culture incubator and equilibrated at room temperature for 15 minutes. Nanoluciferase activity was measured by adding 15 μL of freshly prepared Nano-Glo Luciferase Assay Reagent (Promega N1130), shaking the plates for 10 minutes and reading the bioluminescence using an EnVision reader.
Results: The Inhibition % was calculated using the following formula: % Inhibition=100×(LumHC−LumSample)/(LumHC−LumLC). DMSO treated cells are employed as High Control (HC) and 1 μM of a known BRD9 degrader standard treated cells are employed as Low Control (LC).
Molecule `CNC(=O)N1CCc2c(-c3cc(OC)c(CN4CCN(CCC5CCN(c6ccc7c(c6)C(=O)N(C6CCC(=O)NC6=O)C7=O)CC5)CC45COC5)c(OC)c3)cn(C)c(=O)c2C1` (stereo not shown) [Compound D98] has an IC50 of under 10 nM.
In the case of `CNC(=O)N1CCc2c(-c3cc(OC)c(CN4CCC(CN(C(C)C)C5CC(Oc6ccc7c(c6)C(=O)N(C6CCC(=O)NC6=O)C7=O)C5)CC4)c(OC)c3)cn(C)c(=O)c2C1` (stereo not shown) [Compound D125], the IC50 is reported as under 10 nM.
Work on `COc1cc(-c2cn(C)c(=O)c3c2CCN(C(=O)NC2CC2)C3)cc(OC)c1CN1CCC(CCN2CCN(c3ccc4c(c3)CN(C3CCC(=O)NC3=O)C4=O)CC2)CC1` (stereo not shown) [Compound D85] yielded an IC50 of under 10 nM.
In the case of `COCCNC(=O)N1CCc2c(-c3cc(OC)c(CN4CCN(CCC5CCN(c6ccc7c(c6)C(=O)N(C6CCC(=O)NC6=O)C7=O)CC5)CC4)c(OC)c3)cn(C)c(=O)c2C1` (stereo not shown) [Compound D43], the IC50 is reported as under 10 nM.
`CNC(=O)N1CCc2c(-c3cc(OC)c(CN4CC(S(=O)(=O)NCCOc5cccc6c5C(=O)N(C5CCC(=O)NC5=O)C6=O)C4)c(OC)c3)cn(C)c(=O)c2C1` (stereo not shown) [Compound D282] gave an IC50 of 100 to 1000 nM.
Work on `CNC(=O)N1CCc2c(-c3cc(OC)c(CN4CCN(CCN5CCC(c6ccc7c(c6)C(=O)N(C6CCC(=O)NC6=O)C7)CC5)CC4)c(OC)c3)cn(C)c(=O)c2C1` (stereo not shown) [Compound D71] yielded an IC50 of under 10 nM.
`COc1cc(-c2cn(C)c(=O)c3c2CCN(C(=O)NCCN2CCC(OC4CCN(c5ccc6c(c5)C(=O)N(C5CCC(=O)NC5=O)C6=O)CC4)CC2)C3)cc(OC)c1CN(C)C` (stereo not shown) [Compound D186] was tested, and the IC50 was 10 to 100 nM.
Molecule `CNC(=O)N1CCc2c(-c3cc(OC)c(CN4CCC(CN5CCC6(CC5)CC(Oc5ccc7c(c5)C(=O)N(C5CCC(=O)NC5=O)C7=O)C6)CC4)c(OC)c3)cn(C)c(=O)c2C1` (stereo not shown) [Compound D253] has an IC50 of under 10 nM.
`CNC(=O)N1CCc2c(-c3cc(OC)c(CN4CC5CN(C(=O)CCOCCOc6ccc7c(c6)C(=O)N(C6CCC(=O)NC6=O)C7=O)CCC54)c(OC)c3)cn(C)c(=O)c2C1` (stereo not shown) [Compound D289] showed an IC50 of 10 to 100 nM.
With `CNC(=O)N1CCc2c(-c3cc(OC)c(CN4CCC(CCN5CCN(c6cc7c(cc6F)C(=O)N(C6CCC(=O)NC6=O)C7=O)CC5)CC4)c(OC)c3)cn(C)c(=O)c2C1` (stereo not shown) [Compound D88] the IC50 was under 10 nM.
Molecule `[2H]C([2H])([2H])NC(=O)N1CCc2c(-c3cc(OC)c(CN4CCN(CCC5CCN(c6ccc7c(c6)C(=O)N(C6CCC(=O)NC6=O)C7=O)CC5)CC4)c(OC)c3)cn(C)c(=O)c2C1` (stereo not shown) [Compound D48] has an IC50 of under 10 nM.
With `CNC(=O)N1CCc2c(-c3cc(OC)c(CN4CC5CC4CC5CN4CCN(c5ccc6c(c5)C(=O)N(C5CCC(=O)NC5=O)C6=O)CC4)c(OC)c3)cn(C)c(=O)c2C1` (stereo not shown) [Compound D129] the IC50 was 10 to 100 nM.
With `CNC(=O)N1CCc2c(-c3cc(OC)c(CN4CCC(CCN5CCN(c6cc7c(cc6F)C(=O)N(C6CCC(=O)NC6=O)C7)CC5)CC4)c(OC)c3)cn(C)c(=O)c2C1` (stereo not shown) [Compound D84] the IC50 was under 10 nM.
In the case of `COc1cc(-c2cn(C)c(=O)c3c2CCN(C(=O)NC2CC4(CCN(CCCOc5ccc6c(c5)C(=O)N(C5CCC(=O)NC5=O)C6=O)CC4)C2)C3)cc(OC)c1CN(C)C` (stereo not shown) [Compound D252], the IC50 is reported as 100 to 1000 nM.
`COc1cc(-c2cn(C)c(=O)c3c2CCN(C(=O)NCCN(C)CCNC(=O)COc2ccc4c(c2)CN(C2CCC(=O)NC2=O)C4=O)C3)cc(OC)c1CN(C)C` (stereo not shown) [Compound D290] was tested, and the IC50 was at least 1000 nM.
`CNC(=O)N1CCc2c(-c3cc(OC)c(CN4CCC(CCN(C)C5CCN(c6ccc7c(c6)C(=O)N(C6CCC(=O)NC6=O)C7=O)CC5)CC4)c(OC)c3)cn(C)c(=O)c2C1` (stereo not shown) [Compound D200] showed an IC50 of under 10 nM.
Work on `CNC(=O)N1CCc2c(-c3cc(OC)c(CNC4CC5(C4)CN(c4ccc6c(c4)C(=O)N(C4CCC(=O)NC4=O)C6=O)C5)c(OC)c3)cn(C)c(=O)c2C1` (stereo not shown) [Compound D158] yielded an IC50 of under 10 nM.
`CNC(=O)N1CCc2c(-c3cc(OC)c(CN4CCC(C#Cc5ccc6c(c5)C(=O)N(C5CCC(=O)NC5=O)C6=O)CC4)c(OC)c3)cn(C)c(=O)c2C1` (stereo not shown) [Compound D143] gave an IC50 of under 10 nM.
In the case of `COc1cc(-c2cn(C)c(=O)c3c2CCN(C(=O)NC2CCC4CN(CCOc5ccc6c(c5)C(=O)N(C5CCC(=O)NC5=O)C6=O)CC42)C3)cc(OC)c1CN(C)C` (stereo not shown) [Compound D271], the IC50 is reported as 10 to 100 nM.
With `CNC(=O)N1CCc2c(-c3cc(OC)c(CN4CC(S(=O)(=O)NCCCCOc5ccc6c(c5)C(=O)N(C5CCC(=O)NC5=O)C6=O)C4)c(OC)c3)cn(C)c(=O)c2C1` (stereo not shown) [Compound D278] the IC50 was 10 to 100 nM.
For `COc1cc(-c2cn(C)c(=O)c3c2CCN(C(=O)NCC2CC4(C2)CN(CCCOc2ccc5c(c2)C(=O)N(C2CCC(=O)NC2=O)C5=O)C4)C3)cc(OC)c1CN(C)C` (stereo not shown) [Compound D194], the IC50 was 100 to 1000 nM.
For `CNC(=O)N1CCc2c(-c3cc(OC)c(CN4CC(CN5CC6(CCN(c7ccc8c(c7)C(=O)N(C7CCC(=O)NC7=O)C8=O)C6)C5)C4)c(OC)c3)cn(C)c(=O)c2C1` (stereo not shown) [Compound D167], the IC50 was 10 to 100 nM.
Work on `COc1cc(-c2cn(C)c(=O)c3c2CCN(C(=O)NC2CC4(CCN(CCCCN5CCN(c6ccc7c(c6)C(=O)N(C6CCC(=O)NC6=O)C7=O)CC5)CC4)CO2)C3)cc(OC)c1CN(C)C` (stereo not shown) [Compound D217] yielded an IC50 of at least 1000 nM.
`CNC(=O)N1CCc2c(-c3cc(OC)c(CN4CC(C#Cc5ccc6c(c5)C(=O)N(C5CCC(=O)NC5=O)C6=O)C4)c(OC)c3)cn(C)c(=O)c2C1` (stereo not shown) [Compound D142] gave an IC50 of under 10 nM.
`COc1cc(-c2cn(C)c(=O)c3c2CCN(C(=O)NC2CC4CC2CN4CCCCN2CCN(c4ccc5c(c4)C(=O)N(C4CCC(=O)NC4=O)C5=O)CC2)C3)cc(OC)c1CN(C)C` (stereo not shown) [Compound D243] was tested, and the IC50 was at least 1000 nM.
Molecule `COc1cc(-c2cn(C)c(=O)c3c2CCN(C(=O)NCC2CC4CN(CCOc5ccc6c(c5)C(=O)N(C5CCC(=O)NC5=O)C6=O)CC4C2)C3)cc(OC)c1CN(C)C` (stereo not shown) [Compound D266] has an IC50 of 10 to 100 nM.
For `CNC(=O)N1CCc2c(-c3cc(OC)c(CN4CCC(CCN5CCN(c6ccc7nn(C8CCC(=O)NC8=O)c(=O)n7c6)CC5)CC4)c(OC)c3)cn(C)c(=O)c2C1` (stereo not shown) [Compound D57], the IC50 was 10 to 100 nM.
`COc1cc(-c2cn(C)c(=O)c3c2CCN(C(=O)NCC2CC4(C2)CN(c2ccc5c(c2)C(=O)N(C2CCC(=O)NC2=O)C5=O)C4)C3)cc(OC)c1CN(C)C` (stereo not shown) [Compound D115] gave an IC50 of under 10 nM.
With `CNC(=O)N1CCc2c(-c3cc(OC)c(CN4CCC(CCN5CCC6(CC5)CC(Oc5ccc7c(c5)C(=O)N(C5CCC(=O)NC5=O)C7=O)C6)CC4)c(OC)c3)cn(C)c(=O)c2C1` (stereo not shown) [Compound D251] the IC50 was under 10 nM.
`CNC(=O)N1CCc2c(-c3cc(OC)c(CN4CC(CC(=O)N5CCC6(CC5)CC(Oc5ccc7c(c5)C(=O)N(C5CCC(=O)NC5=O)C7=O)C6)C4)c(OC)c3)cn(C)c(=O)c2C1` (stereo not shown) [Compound D275] showed an IC50 of 10 to 100 nM.
`CNC(=O)N1CCc2c(-c3cc(OC)c(CN4CCC(CCN5CCN(c6cc7c(cc6F)CN(C6CCC(=O)NC6=O)C7=O)CC5)CC4)c(OC)c3)cn(C)c(=O)c2C1` (stereo not shown) [Compound D83] gave an IC50 of under 10 nM.
`CNC(=O)N1CCc2c(-c3cc(OC)c(CN4CC(S(=O)(=O)NCCCCOc5cccc6c5C(=O)N(C5CCC(=O)NC5=O)C6=O)C4)c(OC)c3)cn(C)c(=O)c2C1` (stereo not shown) [Compound D281] showed an IC50 of 10 to 100 nM.
`CNC(=O)N1CCc2c(-c3cc(OC)c(CN4CCC(CCCN5Cc6cc7c(cc6C5)C(=O)N(C5CCC(=O)NC5=O)C7=O)CC4)c(OC)c3)cn(C)c(=O)c2C1` (stereo not shown) [Compound D178] was tested, and the IC50 was under 10 nM.
With `COc1cc(-c2cn(C)c(=O)c3c2CCCC3)cc(OC)c1CN1CC(CN2CCC3(CC2)CN(c2ccc4c(c2)C(=O)N(C2CCC(=O)NC2=O)C4)C3)C1` (stereo not shown) [Compound D301] the IC50 was under 10 nM.

Same assay, conditions: SYO-1 cells, 6 hours, Table 6A
`COc1cc(-c2cn(C)c(=O)c3c2CCN(C(=O)NCCCCCCCCNC(=O)COc2cccc4c2C(=O)N(C2CCC(=O)NC2=O)C4=O)C3)cc(OC)c1CN(C)C` (stereo not shown) [Compound D10, 5-(4-((dimethylamino)methyl)-3,5-dimethoxyphenyl)-N-(8-(2-((2-(2,6-dioxopiperidin-3-yl)-1,3-dioxoisoindolin-4-yl)oxy)acetamido)octyl)-7-methyl-8-oxo-3,4,7,8-tetrahydro-2,7-naphthyridine-2 (1H)-carboxamide formic acid] was tested, and the IC50 was over 100 nM.

Same assay, conditions: SYO-1 cells, 6 hours, Table 6C
In the case of `COc1cc(-c2cn(C)c(=O)c3c2CCC3)cc(OC)c1CN1CCN(c2ccc3c(c2)C(=O)N(C2CCC(=O)NC2=O)C3)CC1` (stereo not shown) [Compound D364], the IC50 is reported as under 10 nM.
For `COc1cc(-c2cn(C)c(=O)c3c2CN(C(=O)F)CC3)cc(OC)c1CN1CC(CN2CCC3(CC2)CN(c2ccc4c(c2)C(=O)N(C2CCC(=O)NC2=O)C4)C3)C1` (stereo not shown) [Compound D349], the IC50 was at least 10 nM.
In the case of `COc1cc(-c2cn(C)c(=O)c3c2COC3)cc(OC)c1CN1CCN(c2ccc3c(c2)C(=O)N(C2CCC(=O)NC2=O)C3=O)CC1` (stereo not shown) [Compound D373], the IC50 is reported as under 10 nM.
With `COc1cc(-c2cn(C)c(=O)c3c2CCN(C(=O)NCC(F)F)C3)cc(OC)c1CN1CCN(CCC2CCN(c3ccc4c(c3)C(=O)N(C3CCC(=O)NC3=O)C4)CC2)CC12CC2` (stereo not shown) [Compound D312] the IC50 was under 10 nM.
`CNC(=O)N1CCc2c(-c3cc(OC)c(CN4CCC5(CC4)CN(c4ccc6c(c4)C(=O)N(C4CCC(=O)NC4=O)C6)C5)c(OC)c3)cn(C)c(=O)c2C1` (stereo not shown) [Compound D308] gave an IC50 of under 10 nM.
In the case of `CNC(=O)N1CCc2c(-c3cc(OC)c(CN4CCC(C(N5CCC6(CC5)CC(Oc5ccc7c(c5)C(=O)N(C5CCC(=O)NC5=O)C7)C6)C(F)(F)F)CC4)c(OC)c3)cn(C)c(=O)c2C1` (stereo not shown) [Compound D345], the IC50 is reported as under 10 nM.
`COc1cc(-c2cn(C)c(=O)c3c2CCC3)cc(OC)c1CN1CC(C#Cc2ccc3c(c2)CN(C2CCC(=O)NC2=O)C3=O)C1` (stereo not shown) [Compound D369] showed an IC50 of under 10 nM.
With `CNC(=O)N1CCc2c(-c3cc(OC)c(CN4CCC(C(N5CCC6(CC5)CC(Oc5ccc7c(c5)C(=O)N(C5CCC(=O)NC5=O)C7=O)C6)C(F)(F)F)CC4)c(OC)c3)cn(C)c(=O)c2C1` (stereo not shown) [Compound D343] the IC50 was at least 1000 nM.

From patent US12384776B2, “Compounds and uses thereof” (Foghorn Therapeutics Inc., priority 2019, dated 2025)
